Assay results as given in patent publication US20150175585A1, “FUSED QUINONIC COMPOUNDS” (CENTRO ATLANTICO DEL MEDICAMENTO S.A (CEAMED, S.A.), priority 2012, published 2015).

How the values were obtained:
Type in all cases: cell-based, human
[1] = tested on: STAT5 transcription (pSPI-GLE1-luc) in HEK-GHR cells; experiment: HEK-GHR STAT5 transcription assay (luciferase reporter, rhGH stimulated); conditions: Homo sapiens, compound 45 minutes before 50 nM rhGH, six hours, read-out: Activity (IC50, reduction of luciferase activity)
Text: Plasmids: The full-length GHR was subcloned into pcDNA1/ampicillin (Invitrogen) as described previously (Ross R J, Esposito N, Shen X Y, et al., Mol Endocrinol 1997, 11:265-73). The pSPI-GLE1 (serine protease inhibitor 2.1 GAS-like element 1)-luc reporter construct was generated by subcloning the Stat5-binding element from serine protease inhibitor gene together with a minimal thymidine kinase promoter into the pGL2 plasmid (Promega), which contains the firefly luciferase cDNA (Wood T J, Sliva D, Lobie P E, et al. J Biol Chem 1995, 270:9448-53).
Cell culture: HEK-GHR cell line was maintained in Dulbecco's Modified Eagle Medium (DMEM)/F12 supplemented with 10% fetal bovine serum (FBS) and 50 U/ml penicillin/50 U/ml streptomycin. The cells were maintained in a humidified incubator with 5% CO2 at 37° C. Cell culture reagents were obtained from PAA laboratories. The HEK-GHR cell line is a stable clone generated and kindly donated by Prof. Richard Ross (Clinical Sciences, Northern General Hospital, Sheffield, UK). Briefly, HEK-GHR cell line was generated in HEK 293 cells (human kidney embryonal cell line) by transfection with the calcium phosphate procedure of the GHR plasmid with pcDNA3/Neo (Invitrogen). Selection was made using G418 (400 ug/ml, Sigma) (Maamra M, Finidori J, Von Laue S, et al., J Biol Chem 1999, 274(21):14791-8).
Luciferase reporter assay: Transcription assays were performed in HEK-GHR. The HEK-GHR cells were co-transfected with Stat5 luciferase (pSPI-GLE1-luc) reporter vector together with a plasmid constitutively expressing beta-galactosidase by using Metafectene Pro as described by the manufacturer (Biontex Laboratories GmbH, Munich, Germany). Following transfection, HEK-GHR cells were serum-starved for 20 h. Cells were then treated with vehicle (0.1% DMSO) or the indicated compound for 45 minutes prior to the addition of 50 nM recombinant human Growth Hormone (rhGH) (Norditropin, Novo Nordisk) to the medium. Six hours following rhGH addition, cells were harvested with Passive Lysis Buffer (Promega), and levels of luciferase were measured using Luciferase Assay System as described by the manufacturer (Promega). The Galacto-Light Plus System (Applied Biosystems) was used to measure beta-galactosidase activity.
Statistical analysis. The concentration of drug that provokes 50% reduction of luciferase activity (IC50) was determined by using non-linear regression analysis and data were fitted to a log concentration vs normalized response curve in GraphPad software v5 (San Diego, Calif.).

STAT3 = experiment: IL-6 induced STAT3 phosphorylation in T47D cells (Western immunoblotting); conditions: serum deprived T47D cells; 5 μM for 0.5-3 h or 0.5-10 μM; IL-6 25 ng/ml 30 min
Protocol: FIG. 2. • Overnight serum deprived T47D cells were stimulated with IL-6 (25 ng/ml) for 3, 5, 10, 20, 30, 45 and 60 min. JAK2, pYJAK2, STAT3 and pYSTAT3 were detected using Western immunoblotting as described in methods. B) Overnight serum derived T47D cells were pre-incubated with compound 4 (C4) (5 μM) for 0.5, 1, 2, and 3 h and stimulated with 25 ng/ml for 30 min. JAK2, pYJAK2, STAT3 and pYSTAT3 were detected using Western immunoblotting as described in methods. C) Overnight serum derived T47D cells were preincubated with C4 at increasing concentrations (0.5-10 μM) for 3 h and stimulated with 25 ng/ml IL-6 for 30 min. JAK2, pJAK2, STAT5 and pSTAT5 were detected using Western immunoblotting as described above. Equal protein loading was confirmed using a specific human anti-β-actin antibody. C—Veh: T47D cells exposed to C4 and IL-6 vehicle (0.1% DMSO and PBS, respectively) for the indicated times. C+: T47D cells exposed to C4 vehicle (0.1% DMSO) and stimulated with IL-6 (25 ng/ml) for the indicated time.
T47D cells were routinely maintained in 75-cm^2 culture flasks with vented caps at 37° C., 5% CO2 in RPMI 1640 growth media without phenol red supplemented with 10% FBS, 2 mM L-glutamine, 10 mM HEPES, 50 U/ml penicillin/50 U/ml streptomycin, and 0.3 mg/ml gentamicin. […]

HEL cells = experiment: Induction of apoptosis in HEL cells (annexin-V-FITC/propidium iodide flow cytometry); conditions: 24 or 48 hours
Protocol: FIG. 3. • Analysis of phosphatidylserine externalization in human erythroleukemia cells (HEL) treated with compound 4 or the reported JAK-STAT inhibitor WP 1066. A) At different concentrations for 24 hours. B) Representation of the data obtained after treatment of cells with 5 μM of compound 4 for 48 hours compared to vehicle. (C) Data obtained after treatment of the cells with a concentration of 5 μM of compound 4 for 24 or 48 hours. Data are representative of three experiments. * Signifies a P<0.01 difference from control. ^0 Signifies a P<0.001 difference from control.
Human erythroleukemia (HEL) cells, at a density of 1.5×10^5 cells/ml, were treated with compound 4 at the indicated concentrations for 24 or 48 hours. The cells were incubated with propidium iodide and annexin-V-FITC and the quantity of phosphatidylserine externalized was determined using flow cytometry.

N#Cc1ccc(C2C3=C(CCCC3=O)OC3=C2C(=O)c2ccccc2C3=O)cc1 (stereo not drawn) [Compound 4, 4-(1,6,11-trioxo-2,3,4,6,11,12-hexahydro-1H-benzo[b]xanthen-12-yl)benzonitrile]
IC50 [1]: < 1000 nM
IL-6-induced STAT3 phosphorylation (STAT3): inhibits, in a time/dose dependent manner
apoptosis of HEL cells (phosphatidylserine externalization) (HEL cells): induced, in a dose and time dependent manner, apoptosis
